Experimental data taken from patent publication US9340577B2, “HLA binding motifs and peptides and their uses” (priority 1992, dated 2016).
No end group written: not given here.

Assays:
Test in all cases: biochemical
Type in all cases: binding
HLA-A11 (A*1101) = HLA-A11 (A*1101) (Homo sapiens, UniProt P04439, A114D/D185E/E176A/F33Y/L180Q/S129P/T187R)
A*6801 = A*6801 (Homo sapiens, UniProt P04439, A269V/D185E/E176V/E277Q/E87N/F33Y/G231S/I121M/I166T/I218V/L180W/L300P/L318F/N151K/P208A/P217A/Q86R/R169H/T345S)
A*3301 = A*3301 (Homo sapiens, UniProt P04439, A270S/D185E/E176V/E277Q/E87N/F33T/G231S/H175R/I121M/I218V/I322F/K168Q/K210R/L300P/L318F/M331R/P217A/Q86R/Q94H/R138Q/T323A/T345S/T97I/V358M/Y195H)
A31 (A*3101) = A31 (A*3101) (Homo sapiens, UniProt P04439, A270S/D185E/E176V/E277Q/F33T/G231S/G80R/H175R/I121M/I218V/I322F/K168Q/L300P/L318F/M331R/P217A/Q94H/R138Q/T323A/T345S/T97I/V358M)

CC(C)C[C@H](NC(=O)[C@H](CCCNC(=N)N)NC(=O)[C@H](CCC(=O)O)NC(=O)[C@H](CCC(N)=O)NC(=O)[C@H](CCCNC(=N)N)NC(=O)[C@H](C)NC(=O)[C@@H](N)CCCNC(=N)N)C(=O)N[C@@H](CCC(N)=O)C(=O)N[C@@H](CCCNC(=N)N)C(=O)O [Peptide 78.0311]
IC50 (HLA-A11 (A*1101)): > 20 µM | IC50 (A*6801): > 20 µM | IC50 (A*3301): > 20 µM | IC50 (A31 (A*3101)): 0.35 µM

CC(C)C[C@H](NC(=O)[C@H](CCCNC(=N)N)NC(=O)[C@H](Cc1ccccc1)NC(=O)CNC(=O)[C@@H](N)Cc1ccc(O)cc1)C(=O)NCC(=O)N[C@@H](Cc1ccccc1)C(=O)N[C@@H](CC(C)C)C(=O)N[C@@H](Cc1c[nH]cn1)C(=O)O [Peptide 1556.26]
IC50 (HLA-A11 (A*1101)): 0.019 µM | IC50 (A*3301): 9.91 µM | IC50 (A31 (A*3101)): 3.25 µM

AACWRSRRK [Peptide 88.0260]
IC50 (A*3301): > 20 µM

AIRKAILGHR [Peptide 9017.0223]
IC50 (HLA-A11 (A*1101)): 12.6 µM | IC50 (A*6801): 7.73 µM | IC50 (A*3301): 1.52 µM | IC50 (A31 (A*3101)): 0.025 µM

ALQGLAQSR [Peptide 88.0398]
IC50 (HLA-A11 (A*1101)): 2.76 µM | IC50 (A*6801): 11.3 µM | IC50 (A*3301): > 20 µM | IC50 (A31 (A*3101)): 0.311 µM

AQVLHLLKR [Peptide 88.0364]
IC50 (A*6801): 19.5 µM | IC50 (A*3301): 3.78 µM | IC50 (A31 (A*3101)): 0.098 µM

AQVLHVLKR [Peptide 88.0335]
IC50 (HLA-A11 (A*1101)): 0.079 µM | IC50 (A*6801): 6.53 µM | IC50 (A*3301): 0.064 µM

ATCALYWYR [Peptide 88.0371]
IC50 (HLA-A11 (A*1101)): 0.018 µM | IC50 (A*6801): 0.12 µM | IC50 (A*3301): 0.015 µM | IC50 (A31 (A*3101)): 0.019 µM

AVDLSFFLK [Peptide 73.0184]
IC50 (A*3301): > 20 µM

AVDLYHFLK [Peptide 940-06, reference compound]
active receptor (HLA-A11 (A*1101)): 10%

AVHLCTETSK [Peptide 88.0230]
IC50 (HLA-A11 (A*1101)): 0.087 µM | IC50 (A*6801): 10.5 µM | IC50 (A*3301): > 20 µM

DFISFLSYFK [Peptide 88.0188]
IC50 (HLA-A11 (A*1101)): 0.03 µM | IC50 (A*6801): 0.0015 µM | IC50 (A*3301): 0.0057 µM | IC50 (A31 (A*3101)): 2.63 µM

EFVSFLSALK [Peptide 1587.36]
IC50 (A*6801): 0.022 µM | IC50 (A*3301): 0.017 µM

EQMLIQPPK [Peptide 88.0378]
IC50 (HLA-A11 (A*1101)): 0.079 µM | IC50 (A*6801): 0.732 µM | IC50 (A*3301): 0.831 µM | IC50 (A31 (A*3101)): > 20 µM

ESKKKVESK [Peptide 9017.0082]
IC50 (HLA-A11 (A*1101)): > 20 µM | IC50 (A*6801): 0.25 µM | IC50 (A*3301): > 20 µM | IC50 (A31 (A*3101)): > 20 µM

FAFADLTVVY [Peptide 78.0115]
IC50 (A*3301): > 20 µM | IC50 (A31 (A*3101)): > 20 µM

FVSFLSALK [Peptide 1587.37]
IC50 (HLA-A11 (A*1101)): 0.0088 µM | IC50 (A*6801): 0.013 µM | IC50 (A31 (A*3101)): 4.37 µM

FVVYRDSIPK [Peptide 88.0026]
IC50 (A*6801): 0.01 µM

GILRQRRAR [Peptide 9017.0114]
IC50 (HLA-A11 (A*1101)): 0.672 µM | IC50 (A*6801): 1.48 µM | IC50 (A*3301): 3.19 µM | IC50 (A31 (A*3101)): 0.177 µM

GLVFGILIKR [Peptide 9012.0244]
IC50 (HLA-A11 (A*1101)): 0.489 µM | IC50 (A*3301): 2.64 µM | IC50 (A31 (A*3101)): 2.11 µM

GQVDYYGLYY [Peptide 1589.02]
IC50 (HLA-A11 (A*1101)): 0.053 µM | IC50 (A*6801): > 20 µM | IC50 (A*3301): > 20 µM | IC50 (A31 (A*3101)): 5.4 µM

GQVNCKGIYY [Peptide 88.0209]
IC50 (HLA-A11 (A*1101)): 0.168 µM | IC50 (A*6801): > 20 µM | IC50 (A*3301): > 20 µM | IC50 (A31 (A*3101)): 2.76 µM

GTGISYGRK [Peptide 66.0062]
IC50 (A*3301): > 20 µM | IC50 (A31 (A*3101)): > 20 µM

GTRQARKNR [Peptide 9017.0071]
IC50 (HLA-A11 (A*1101)): 8.35 µM | IC50 (A*6801): > 20 µM | IC50 (A*3301): 5.07 µM | IC50 (A31 (A*3101)): 0.024 µM

GTTLEQQYNK [Peptide 78.0044]
IC50 (HLA-A11 (A*1101)): 0.069 µM | IC50 (A*6801): 3.94 µM | IC50 (A*3301): > 20 µM | IC50 (A31 (A*3101)): > 20 µM

HLVPWDQLFR [Peptide 9012.0236]
IC50 (A*6801): 0.021 µM | IC50 (A31 (A*3101)): 0.308 µM

ILWKDIFHR [Peptide 9012.0201]
IC50 (A*6801): 0.235 µM | IC50 (A*3301): 0.0048 µM | IC50 (A31 (A*3101)): 0.0064 µM

ITIEKLLEK [Peptide 1587.31]
IC50 (HLA-A11 (A*1101)): 0.014 µM | IC50 (A*6801): 0.016 µM | IC50 (A*3301): 11 µM

IVIKRRQQK [Peptide 9012.0206]
IC50 (A*6801): 3.3 µM | IC50 (A*3301): 9.11 µM | IC50 (A31 (A*3101)): 0.712 µM

IVKETELRK [Peptide 9012.0209]
IC50 (A*6801): 1.73 µM | IC50 (A*3301): > 20 µM | IC50 (A31 (A*3101)): > 20 µM

IVVSAELPK [Peptide 1556.19]
IC50 (HLA-A11 (A*1101)): 0.093 µM | IC50 (A*6801): 0.218 µM | IC50 (A*3301): > 20 µM | IC50 (A31 (A*3101)): > 20 µM

IVYRDNNPY [Peptide 78.0292]
IC50 (HLA-A11 (A*1101)): 0.018 µM | IC50 (A*3301): > 20 µM | IC50 (A31 (A*3101)): > 20 µM

KAGPGGYPRK [Peptide 73.0334]
IC50 (A*3301): > 20 µM

KGLGISYGR [Peptide 1577.30]
IC50 (HLA-A11 (A*1101)): 0.415 µM | IC50 (A*6801): > 20 µM | IC50 (A*3301): > 20 µM | IC50 (A31 (A*3101)): 0.0014 µM

KISEYRHYNK [Peptide 88.0110]
IC50 (A*3301): > 20 µM

KISEYRHYQY [Peptide 1571.14]
IC50 (HLA-A11 (A*1101)): 0.392 µM | IC50 (A*6801): 11.7 µM | IC50 (A*3301): > 20 µM | IC50 (A31 (A*3101)): 7.22 µM

KQGAMLAVFK [Peptide 88.0142]
IC50 (A*6801): 0.235 µM | IC50 (A*3301): > 20 µM | IC50 (A31 (A*3101)): 0.519 µM

KQSRAAKRR [Peptide 88.0325]
IC50 (HLA-A11 (A*1101)): 18.8 µM | IC50 (A*6801): 1.12 µM | IC50 (A*3301): 0.512 µM

KTLGISYGRK [Peptide 66.0073]
IC50 (A*3301): > 20 µM

KTLGISYGRKK [Peptide 66.0090]
IC50 (A*3301): > 20 µM

KVGPGGYPRRK [Peptide 73.0336]
IC50 (A*3301): > 20 µM

KVGSLQYLK [Peptide 66.0057]
IC50 (A*3301): > 20 µM

LALTALIKPK [Peptide 9017.0227]
IC50 (HLA-A11 (A*1101)): 0.034 µM | IC50 (A*6801): 3.48 µM | IC50 (A*3301): > 20 µM

LQHASTSTPK [Peptide 88.0224]
IC50 (HLA-A11 (A*1101)): 0.02 µM | IC50 (A*3301): > 20 µM | IC50 (A31 (A*3101)): 5.82 µM

LVYRDDFPK [Peptide 88.0280]
IC50 (A*6801): 0.11 µM
